Results as given in patent publication US6518012B1, “Method for regulating the expression of MHC antigens and CD40 by inhibitors of histone deacetylation” (Health Research, Inc., priority 1999, dated 2003).

Assays:
CD40 mRNA [1] = experiment: CD40 mRNA by real-time PCR in SK-N-MC; assay type: cell-based, human; conditions: MC cells, at 24 hours
CD40 mRNA [2] = experiment: CD40 mRNA by real-time PCR in Colon 26 and J558; assay type: cell-based, mouse
Protocol: In order to obtain more quantitative information on fold changes in DR and CIITA after treatment with the deacetylase inhibitors, a real time fluorescence technique capable of quantitating low copy numbers of transcripts was carried out as follows. Oligonucleotide primers and TaqMan 5′-6-FAM and 3′-TAMRA-labeled probes were synthesized in the RPCI Biopolymer Facility. Primer and probe sequences are listed under Sequence Listing and also in FIG. 9. Sequences were designed using standard software (PrimerExpress software, PE Biosystems) except for human GAPDH.
Realtime PCR reactions contained TaqMan Universal PCR Master Mix (PE Biosystems), primers at 300 nM, and probes at optimal concentrations (150-225 nM depending on gene). Reactions were carried out on an ABI PRISM 7700 Sequence Detection System (PE Biosystems). Cycling conditions were 50° C. for 2 min, 95° C. for 10 min, then 60 cycles of 95° C. for 15 sec, 60° C. for 1 min. PCR samples were run in triplicate. The detection system and quantitative PCR was carried out as described by Williamson et al. (1995, Genet Res. 65:83-93). The threshold cycle number CT corresponded to the cycle number, at which the fluorescent emission reaches 10 standard deviations above the mean fluorescent emission, measured during the early ‘baseline’ cycles of the PCR. The CT values for triplicates were averaged and normalized to GAPDH levels. […] In such cases, in order to calculate a minimum fold change for other samples in the same group, the CT value was arbitrarily set at 40. […] Assuming reverse transcription efficiencies were approximately the same for each sample, relative amounts of mRNA using the comparative CT method. Fold changes in mRNA levels were calculated as 2^x where x=the difference between normalized CT values of the control and experimental samples.
This embodiment illustrates the effect of DAIs on costimulatory molecules. Because of the importance of costimulatory molecules in the cellular activation mechanism involving MHC complexes, the effect of DAIs on the expression of B7-1, B7-2 and CD40 genes was investigated by real-time PCR as well as RT-PCR. While no consistent changes in B7-1 and B7-2 were detected (data not shown), CD40 expression was enhanced by TSA in all three cell types (FIGS. 7A, B, C). MC cells constitutively expressed low levels of CD40 and IFNγ enhanced CD40 mRNA levels 5-fold while TSA elicited a 12-fold increase at 24 hours (FIG. 7A). […] GADPH mRNA remained essentially unchanged with both the primer sites used in RT-PCR and real-time PCR. The lack of induction of CD40 by IFNγ in J558 cells is consistent with the failure of IFNγ to activate other IFNγ inducible genes.

[3] = system: MHC class II protein on the cell surface; experiment: Cell surface MHC class II protein by flow cytometry on Colon 26 and J558; assay type: cell-based, mouse; conditions: for expression of MHC class II protein on the cell surface: Colon 26 (50 nM TSA 48 hours) and J558 (25 nM TSA 24 hours), flow cytometry, IFNγ 100 U/ml same time
Protocol: To determine the effect of TSA on cell surface protein expression, the J558 cell line was subjected to flow cytometric analyses as follows. Flow cytometric analyses were conducted by standard methods using cells fixed with 1.0% paraformaldehyde and analyzed on the FACScan (Becton Dickinson). Cell cycle analyses were carried out by flow cytometry with PI staining of genomic DNA. Cells were fixed and permeablized in methanol, treated with RNaseA and analyzed for DNA content by determination of FL3-area on the FACScan. The FL3-area data were analyzed with the ModFit software for determination of the percent cells in each phase of the cell cycle. In some cases, fluorescein isothiocyanate (FITC)-conjugated antibody staining was conducted prior to PI treatment and surface staining was analyzed as a function of cell cycle phase. Apoptosis was analyzed by staining with annexin-V directly conjugated with either FITC or RPE and by sub-G0 analysis of DNA staining. Expression levels without treatment are shown as shaded peaks, IFNγ treated cell expression is plotted by a thin line while the level of expression on TSA treated cells is represented by a heavy line. Isotype controls were analyzed and, in each case, fell on or below the levels shown for control cells. MC and Colon 26 treatments are shown for 50 nM TSA for 48 hours, while J558 treatment is for 25 nM TSA for 24 hours. All IFNγ treatments were 100 U/ml for the same length of time as the corresponding TSA treatment. The percent of cells staining positive for MHC class II or CD40 expression is indicated below each histogram. Since all cells were positive for MHC class I expression, the number under the histogram represents -fold change of expression calculated from the mean channel-shift after treatment relative to untreated cells. Data are representative of at least three independent experiments. Of the 13 markers analyzed on J558 cells, only class I, II and CD40 were enhanced, while levels of several non-expressed antigens were not elicited (including CD25, B7 integrin, CD40L, H2K^k and IA^k) while other markers, which were expressed, were not altered (including CD44, CD54, CD80, CD86 and CD119) by TSA treatment. […] The highest expression (21-fold induction) was achieved on J558 cells after 24 hr by 25 nM TSA. […] The separation of control and IFNγ curves in the CD40, J558 experiment depicted in FIG. 8 represents a mean channel fluorescence difference of only 1.3 and was not seen on independent replicates of the experiment.
TSA has been described as a cell cycle inhibitor that induces both G1 and especially G2/M blocks (Bestor, 1998, Nature, 393:311-312; Yoshida et al., 1988, Exp. Cell Res. 177:122-131). MHC class II, but not class I, has been reported (Inokoshi et al., 1999, Biochem. Biophys. Res. Commun., 256:372-376; Monroe et al., 1983, J. Immunol., 130:626-631) to be regulated differentially during the cell cycle. Therefore the cell cycle of the cell lines used in the present invention was analyzed by DNA staining and flow cytometry with each of the treatment conditions under study. […] Two additional methods were used to analyze cell cycle effects on MHC expression. Since it has been reported that TSA arrests cell cycle mainly in G2/M, and class II has been reported to accumulate in G2/M (Monroe et al., 1983, supra), experiments were designed to essentially arrest 100% of J558 cells in G2/M with nocodazole. […] From the above experiments, it can be concluded that DAIs have specific effects on MHC class I and II, and CD40 gene expression, which is likely not a result of its action on the cell cycle.

CD40 = experiment: Cell surface CD40 by flow cytometry on Colon 26 and J558; assay type: cell-based, mouse
Protocol: To determine the effect of TSA on cell surface protein expression, the J558 cell line was subjected to flow cytometric analyses as follows. Flow cytometric analyses were conducted by standard methods using cells fixed with 1.0% paraformaldehyde and analyzed on the FACScan (Becton Dickinson). Cell cycle analyses were carried out by flow cytometry with PI staining of genomic DNA. Cells were fixed and permeablized in methanol, treated with RNaseA and analyzed for DNA content by determination of FL3-area on the FACScan. The FL3-area data were analyzed with the ModFit software for determination of the percent cells in each phase of the cell cycle. In some cases, fluorescein isothiocyanate (FITC)-conjugated antibody staining was conducted prior to PI treatment and surface staining was analyzed as a function of cell cycle phase. Apoptosis was analyzed by staining with annexin-V directly conjugated with either FITC or RPE and by sub-G0 analysis of DNA staining. […] Isotype controls were analyzed and, in each case, fell on or below the levels shown for control cells. […] Since all cells were positive for MHC class I expression, the number under the histogram represents -fold change of expression calculated from the mean channel-shift after treatment relative to untreated cells. […]

HLA-DRα mRNA = HLA-DRα mRNA by standard PCR and real-time PCR in human cell lines JAR and SK-N-MC; assay type: cell-based; conditions: for fold increase in expression of DR: MC cells, real time PCR, 100 nM TSA 24 hr, NaBu 1 mM 48 hr, IFNγ any concentration or time point; for levels of mRNA for HLA-DRα (DR): SK-N-MC, RT-PCR, 100 nM TSA 24 hours, 1 mM NaBu 48 hours, IFNγ
[4] = Colon 26, 60 cycles, 100 U/ml IFNγ for 24 hours, TSA (12 and 48 hours)
[5] = J558, TSA 25 nM for 24 hours, IFNγ

| Compound | CD40 mRNA fold increase (CD40 mRNA [1]) [fold] | CD40 mRNA fold increase (CD40 mRNA [2]; [4]) | CD40 mRNA fold increase (CD40 mRNA [2]; [5]) | expression of MHC class II protein on the cell surface [3] | cells positive for class II expression ([3]; Colon 26, TSA concentration used in FIG. 8 (50 nM for 48 hours)) [%] | MHC class II positive cells ([3]; J558, G2/M arrest experiment with nocodazole, data not shown) [%] | cells positive for class II expression ([3]; J558, TSA concentration used in FIG. 8 (25 nM for 24 hours)) [%] | induction of cell surface MHC class II, mean channel fluorescence ([3]; J558 cells, 24 hr, 25 nM TSA, highest expression) [fold] | expression of CD40 on cell surface (CD40; Colon 26 and J558, flow cytometry) | fold increase in expression of DR (HLA-DRα mRNA) | levels of mRNA for HLA-DRα (DR) (HLA-DRα mRNA) | mean channel fluorescence difference between control and IFNγ curves, CD40 (CD40; J558, IFNγ 100 U/ml 24 hours, not seen on independent replicates) |
| --- | --- | --- | --- | --- | --- | --- | --- | --- | --- | --- | --- | --- |
| CC(/C=C/C(=O)NO)=C\[C@@H](C)C(=O)c1ccc(N(C)C)cc1 [TSA, Trichostatin A] | 12 | 147 fold | 161 fold | significantly induced | 53 | 75 | 87 | 21 | induced expression | 108 fold | substantial increase | – |
| IFNγ: gamma-interferon, cytokine used as comparator at 100 U/ml | 5 | undetectable | did not change | did not induce | – | – | – | – | – | did not stimulate | cannot be induced | 1.3 |
